Measurements published in BindingDB's records for doi:10.1021/jm050060l (University of Perugia Via Del Liceo, 2021).

Key:
[1] = target: T1, Neuropeptide Y receptor type 1 (Homo sapiens, UniProt P25929); experiment: Displacement of 125I-PYY from human neuropeptide Y Y1 receptor expressed in human SK-N-MC cell membrane assessed as inhibition constant incubated for 1 hrs by competitive binding assay
T1 sequence (P25929 whole entry): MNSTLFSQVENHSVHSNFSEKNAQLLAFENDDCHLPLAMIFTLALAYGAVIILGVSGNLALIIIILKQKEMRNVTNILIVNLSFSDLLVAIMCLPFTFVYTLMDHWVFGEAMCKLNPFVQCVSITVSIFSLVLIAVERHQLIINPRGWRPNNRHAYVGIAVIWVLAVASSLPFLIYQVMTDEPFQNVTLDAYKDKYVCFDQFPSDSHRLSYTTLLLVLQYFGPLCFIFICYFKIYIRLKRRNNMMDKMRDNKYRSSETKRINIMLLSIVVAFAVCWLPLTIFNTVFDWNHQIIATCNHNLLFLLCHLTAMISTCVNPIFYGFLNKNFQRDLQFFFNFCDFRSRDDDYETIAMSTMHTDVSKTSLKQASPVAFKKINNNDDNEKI

[2] = target: T2, Bifunctional epoxide hydrolase 2 (Homo sapiens, UniProt P34913); experiment: Inhibition of recombinant soluble epoxide hydrolase (unknown origin) using [3H]1,3-diphenyl-trans-propene oxide as substrate assessed as inhibition constant incubated for 5 mins
T2 sequence (P34913 whole entry): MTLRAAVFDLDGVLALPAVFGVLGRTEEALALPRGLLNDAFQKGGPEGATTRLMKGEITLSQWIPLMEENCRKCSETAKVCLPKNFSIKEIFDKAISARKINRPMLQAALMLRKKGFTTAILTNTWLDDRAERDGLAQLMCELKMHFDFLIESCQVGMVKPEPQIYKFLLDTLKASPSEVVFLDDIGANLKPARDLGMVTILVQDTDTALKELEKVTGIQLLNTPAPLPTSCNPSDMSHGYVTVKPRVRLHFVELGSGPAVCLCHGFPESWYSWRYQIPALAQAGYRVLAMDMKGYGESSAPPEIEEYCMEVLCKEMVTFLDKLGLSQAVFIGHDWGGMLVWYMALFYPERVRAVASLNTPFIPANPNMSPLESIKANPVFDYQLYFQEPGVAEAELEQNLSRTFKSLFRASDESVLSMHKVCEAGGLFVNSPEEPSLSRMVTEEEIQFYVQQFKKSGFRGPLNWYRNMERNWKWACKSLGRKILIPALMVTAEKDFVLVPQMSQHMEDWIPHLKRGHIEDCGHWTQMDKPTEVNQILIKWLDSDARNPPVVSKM

[3] = target: T3, C-X-C chemokine receptor type 2 (Homo sapiens, UniProt P25025); experiment: Antagonist activity at CXCR2 (unknown origin)
T3 sequence (P25025 whole entry): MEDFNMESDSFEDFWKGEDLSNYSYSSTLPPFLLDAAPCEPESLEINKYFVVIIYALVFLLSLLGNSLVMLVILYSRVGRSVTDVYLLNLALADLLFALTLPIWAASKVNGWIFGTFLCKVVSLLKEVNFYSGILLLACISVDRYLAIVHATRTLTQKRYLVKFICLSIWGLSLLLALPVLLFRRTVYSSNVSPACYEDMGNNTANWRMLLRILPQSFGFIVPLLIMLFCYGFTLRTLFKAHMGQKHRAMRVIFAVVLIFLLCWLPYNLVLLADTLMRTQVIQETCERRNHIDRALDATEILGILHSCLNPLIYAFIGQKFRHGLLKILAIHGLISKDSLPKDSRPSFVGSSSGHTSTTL

Row | Structure (SMILES) | Ki [1] [nM] | also measured
1 | COC(=O)C1=CNC(C)=C(C(=O)OC)C1c1cccc(N/C(=N/C#N)NCCCN2CCC(c3cccc(OC)c3)CC2)c1 (stereo unspecified) | 5.1 | 
2 | COC(=O)C1=C(C)NC(C)=C(C(=O)OC)C1c1cccc(NC(=O)NCCCN2CCC(c3cccc(OC)c3)CC2)c1 | 3.3 | 
3 | CCCCCCCCCCCCNC(=O)NC1CCCCC1 [US8815951, 297] |  | Ki [2]: 7 nM
4 | COC(=O)C1=CNC(C)=C(C(=O)OC)C1c1cccc(Nc2nnc(CN3CCC(c4cccc(OC)c4)CC3)o2)c1 (stereo unspecified) | 99 | 
5 | COC(=O)C1=CNC(C)=C(C(=O)OC)C1c1cccc(Nc2c(NCCCN3CCC(c4cccc(OC)c4)CC3)c(=O)c2=O)c1 (stereo unspecified) | 21 | 
6 | CN(C)C(=O)c1cccc(Nc2c(Nc3ccccc3)c(=O)c2=O)c1O [3-(3,4-dioxo-2-(phenylamino)cyclobut-1-enylamino)-2-hydroxy-N,N-dimethylbenzamide] |  | IC50 [3]: 2 nM
